# Data from PubChem BioAssay (NCI).
#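 Following 48 hours of exposure in 96-well plates, responses at five concentrations were used to interpolate endpoints linearly. At the GI50, growth is halved. TGI marks complete inhibition of growth.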
# Assays:
# Experiment in all cases: DTP human tumour cell line panel, 48 h
# 786-0 renal = system: 786-0 renal
# A498 renal = system: A498 renal
# ACHN renal = system: ACHN renal
# BT-549 breast = system: BT-549 breast
# CAKI-1 renal = system: CAKI-1 renal
# CCRF-CEM leukemia = system: CCRF-CEM leukemia
# COLO 205 colon = system: COLO 205 colon
# DU-145 prostate = system: DU-145 prostate
# EKVX NSCLC = system: EKVX NSCLC
# HCC-2998 colon = system: HCC-2998 colon
# HCT-116 colon = system: HCT-116 colon
# HCT-15 colon = system: HCT-15 colon
# HL-60(TB) leukemia = system: HL-60(TB) leukemia
# HOP-62 NSCLC = system: HOP-62 NSCLC
# HOP-92 NSCLC = system: HOP-92 NSCLC
# HS 578T breast = system: HS 578T breast
# HT29 colon = system: HT29 colon
# IGROV1 ovarian = system: IGROV1 ovarian
# K-562 leukemia = system: K-562 leukemia
# KM12 colon = system: KM12 colon
# LOX IMVI melanoma = system: LOX IMVI melanoma
# M14 melanoma = system: M14 melanoma
# MALME-3M melanoma = system: MALME-3M melanoma
# MCF7 breast = system: MCF7 breast
# MDA-MB-231 breast = system: MDA-MB-231 breast
# MDA-MB-435 = system: MDA-MB-435
# MOLT-4 leukemia = system: MOLT-4 leukemia
# NCI-H226 lung = system: NCI-H226 lung
# NCI-H23 lung = system: NCI-H23 lung
# NCI-H460 lung = system: NCI-H460 lung
# NCI-H522 lung = system: NCI-H522 lung
# NCI/ADR-RES ovarian = system: NCI/ADR-RES ovarian
# OVCAR-3 ovarian = system: OVCAR-3 ovarian
# OVCAR-4 ovarian = system: OVCAR-4 ovarian
# OVCAR-5 ovarian = system: OVCAR-5 ovarian
# PC-3 prostate = system: PC-3 prostate
# RPMI-8226 leukemia = system: RPMI-8226 leukemia
# RXF 393 renal = system: RXF 393 renal
# SF-268 CNS = system: SF-268 CNS
# SF-295 CNS = system: SF-295 CNS
# SF-539 CNS = system: SF-539 CNS
# SK-MEL-2 melanoma = system: SK-MEL-2 melanoma
# SK-MEL-28 melanoma = system: SK-MEL-28 melanoma
# SK-MEL-5 melanoma = system: SK-MEL-5 melanoma
# SK-OV-3 ovarian = system: SK-OV-3 ovarian
# SN12C renal = system: SN12C renal
# SNB-19 CNS = system: SNB-19 CNS
# SNB-75 CNS = system: SNB-75 CNS
# SR leukemia = system: SR leukemia
# SW-620 colon = system: SW-620 colon
# T-47D breast = system: T-47D breast
# TK-10 renal = system: TK-10 renal
# UACC-62 melanoma = system: UACC-62 melanoma
# UO-31 renal = system: UO-31 renal
structure (smiles),measurement,setting,value
COc1ccc2c(c1)/C(=C\c1c[nH]c3ccc(OC)cc13)C(=O)N2,GI50,786-0 renal,5.35 µM
same,TGI,786-0 renal,17.6 µM
same,GI50,A498 renal,1.82 µM
same,TGI,A498 renal,6.47 µM
same,GI50,ACHN renal,2.93 µM
same,TGI,ACHN renal,12.4 µM
same,GI50,BT-549 breast,2.31 µM
same,TGI,BT-549 breast,9.1 µM
same,GI50,CAKI-1 renal,2.13 µM
same,TGI,CAKI-1 renal,13.3 µM
same,GI50,CCRF-CEM leukemia,2.84 µM
same,TGI,CCRF-CEM leukemia,9.33 µM
same,GI50,COLO 205 colon,2.89 µM
same,TGI,COLO 205 colon,9.84 µM
same,GI50,DU-145 prostate,4.72 µM
same,TGI,DU-145 prostate,16.4 µM
same,GI50,EKVX NSCLC,3.01 µM
same,TGI,EKVX NSCLC,15.4 µM
same,GI50,HCC-2998 colon,3.77 µM
same,TGI,HCC-2998 colon,14.7 µM
same,GI50,HCT-116 colon,2.45 µM
same,TGI,HCT-116 colon,10.6 µM
same,GI50,HCT-15 colon,2.97 µM
same,TGI,HCT-15 colon,12.9 µM
same,GI50,HL-60(TB) leukemia,2.97 µM
same,TGI,HL-60(TB) leukemia,6.07 µM
same,GI50,HOP-62 NSCLC,2.72 µM
same,TGI,HOP-62 NSCLC,12.5 µM
same,GI50,HOP-92 NSCLC,1.48 µM
same,TGI,HOP-92 NSCLC,6.55 µM
same,GI50,HS 578T breast,2.33 µM
same,TGI,HS 578T breast,7.66 µM
same,GI50,HT29 colon,4.07 µM
same,TGI,HT29 colon,14.9 µM
same,GI50,IGROV1 ovarian,3.66 µM
same,TGI,IGROV1 ovarian,17.1 µM
same,GI50,K-562 leukemia,2.21 µM
same,TGI,K-562 leukemia,15.5 µM
same,GI50,KM12 colon,0.32 µM
same,TGI,KM12 colon,10.8 µM
same,GI50,LOX IMVI melanoma,3.25 µM
same,TGI,LOX IMVI melanoma,13.6 µM
same,GI50,M14 melanoma,1.91 µM
same,TGI,M14 melanoma,6.14 µM
same,GI50,MALME-3M melanoma,8.52 µM
same,TGI,MALME-3M melanoma,22.9 µM
same,GI50,MCF7 breast,2.65 µM
same,TGI,MCF7 breast,13.1 µM
same,GI50,MDA-MB-231 breast,1.97 µM
same,TGI,MDA-MB-231 breast,6.32 µM
same,GI50,MDA-MB-435,0.877 µM
same,TGI,MDA-MB-435,5.17 µM
same,GI50,MOLT-4 leukemia,2.95 µM
same,TGI,MOLT-4 leukemia,8.14 µM
same,GI50,NCI-H226 lung,4.59 µM
same,TGI,NCI-H226 lung,25.6 µM
same,GI50,NCI-H23 lung,4.46 µM
same,TGI,NCI-H23 lung,21 µM
same,GI50,NCI-H460 lung,3.26 µM
same,TGI,NCI-H460 lung,13.1 µM
same,GI50,NCI-H522 lung,2.27 µM
same,TGI,NCI-H522 lung,7.76 µM
same,GI50,NCI/ADR-RES ovarian,2.65 µM
same,TGI,NCI/ADR-RES ovarian,8.25 µM
same,GI50,OVCAR-3 ovarian,3.65 µM
same,TGI,OVCAR-3 ovarian,13.6 µM
same,GI50,OVCAR-4 ovarian,3.5 µM
same,TGI,OVCAR-4 ovarian,22.8 µM
same,GI50,OVCAR-5 ovarian,3.43 µM
same,TGI,OVCAR-5 ovarian,13.2 µM
same,GI50,PC-3 prostate,3.84 µM
same,TGI,PC-3 prostate,16.3 µM
same,GI50,RPMI-8226 leukemia,2.39 µM
same,TGI,RPMI-8226 leukemia,8.89 µM
same,GI50,RXF 393 renal,2.91 µM
same,TGI,RXF 393 renal,9.6 µM
same,GI50,SF-268 CNS,3.61 µM
same,TGI,SF-268 CNS,15.3 µM
same,GI50,SF-295 CNS,3.67 µM
same,TGI,SF-295 CNS,16.8 µM
same,GI50,SF-539 CNS,3.95 µM
same,TGI,SF-539 CNS,15.6 µM
same,GI50,SK-MEL-2 melanoma,2.3 µM
same,TGI,SK-MEL-2 melanoma,6.27 µM
same,GI50,SK-MEL-28 melanoma,4.56 µM
same,TGI,SK-MEL-28 melanoma,16.7 µM
same,GI50,SK-MEL-5 melanoma,3.02 µM
same,TGI,SK-MEL-5 melanoma,12.5 µM
same,GI50,SK-OV-3 ovarian,2.58 µM
same,TGI,SK-OV-3 ovarian,8.64 µM
same,GI50,SN12C renal,3.07 µM
same,TGI,SN12C renal,12.6 µM
same,GI50,SNB-19 CNS,6.66 µM
same,TGI,SNB-19 CNS,20.1 µM
same,GI50,SNB-75 CNS,1.94 µM
same,TGI,SNB-75 CNS,9.22 µM
same,GI50,SR leukemia,2.39 µM
same,TGI,SR leukemia,7.9 µM
same,GI50,SW-620 colon,2.77 µM
same,TGI,SW-620 colon,11 µM
same,GI50,T-47D breast,2.99 µM
same,TGI,T-47D breast,13.4 µM
same,GI50,TK-10 renal,3.68 µM
same,TGI,TK-10 renal,13.3 µM
same,GI50,UACC-62 melanoma,2.76 µM
same,TGI,UACC-62 melanoma,11.3 µM
same,GI50,UO-31 renal,2.53 µM
same,TGI,UO-31 renal,11.9 µM
